# Data from PMC12405493, “Selective ubiquitination of drug-like small molecules by the ubiquitin ligase HUWE1” (Nature Communications, 2025).
# What was measured:
# HUWE1^FL = target: T1, HUWE1^FL (Homo sapiens, UniProt Q7Z6Z7); assay: HUWE1^FL multi-turnover ubiquitination reactions without protein substrate (autoubiquitination, free Ub chains); format: biochemical; settings: without protein substrate; varying concentrations
# T1 construct: made in house; host or cells: HEK293T (transient transfection, anti-Flag purification, SEC)
# T1 sequence (Q7Z6Z7 whole entry): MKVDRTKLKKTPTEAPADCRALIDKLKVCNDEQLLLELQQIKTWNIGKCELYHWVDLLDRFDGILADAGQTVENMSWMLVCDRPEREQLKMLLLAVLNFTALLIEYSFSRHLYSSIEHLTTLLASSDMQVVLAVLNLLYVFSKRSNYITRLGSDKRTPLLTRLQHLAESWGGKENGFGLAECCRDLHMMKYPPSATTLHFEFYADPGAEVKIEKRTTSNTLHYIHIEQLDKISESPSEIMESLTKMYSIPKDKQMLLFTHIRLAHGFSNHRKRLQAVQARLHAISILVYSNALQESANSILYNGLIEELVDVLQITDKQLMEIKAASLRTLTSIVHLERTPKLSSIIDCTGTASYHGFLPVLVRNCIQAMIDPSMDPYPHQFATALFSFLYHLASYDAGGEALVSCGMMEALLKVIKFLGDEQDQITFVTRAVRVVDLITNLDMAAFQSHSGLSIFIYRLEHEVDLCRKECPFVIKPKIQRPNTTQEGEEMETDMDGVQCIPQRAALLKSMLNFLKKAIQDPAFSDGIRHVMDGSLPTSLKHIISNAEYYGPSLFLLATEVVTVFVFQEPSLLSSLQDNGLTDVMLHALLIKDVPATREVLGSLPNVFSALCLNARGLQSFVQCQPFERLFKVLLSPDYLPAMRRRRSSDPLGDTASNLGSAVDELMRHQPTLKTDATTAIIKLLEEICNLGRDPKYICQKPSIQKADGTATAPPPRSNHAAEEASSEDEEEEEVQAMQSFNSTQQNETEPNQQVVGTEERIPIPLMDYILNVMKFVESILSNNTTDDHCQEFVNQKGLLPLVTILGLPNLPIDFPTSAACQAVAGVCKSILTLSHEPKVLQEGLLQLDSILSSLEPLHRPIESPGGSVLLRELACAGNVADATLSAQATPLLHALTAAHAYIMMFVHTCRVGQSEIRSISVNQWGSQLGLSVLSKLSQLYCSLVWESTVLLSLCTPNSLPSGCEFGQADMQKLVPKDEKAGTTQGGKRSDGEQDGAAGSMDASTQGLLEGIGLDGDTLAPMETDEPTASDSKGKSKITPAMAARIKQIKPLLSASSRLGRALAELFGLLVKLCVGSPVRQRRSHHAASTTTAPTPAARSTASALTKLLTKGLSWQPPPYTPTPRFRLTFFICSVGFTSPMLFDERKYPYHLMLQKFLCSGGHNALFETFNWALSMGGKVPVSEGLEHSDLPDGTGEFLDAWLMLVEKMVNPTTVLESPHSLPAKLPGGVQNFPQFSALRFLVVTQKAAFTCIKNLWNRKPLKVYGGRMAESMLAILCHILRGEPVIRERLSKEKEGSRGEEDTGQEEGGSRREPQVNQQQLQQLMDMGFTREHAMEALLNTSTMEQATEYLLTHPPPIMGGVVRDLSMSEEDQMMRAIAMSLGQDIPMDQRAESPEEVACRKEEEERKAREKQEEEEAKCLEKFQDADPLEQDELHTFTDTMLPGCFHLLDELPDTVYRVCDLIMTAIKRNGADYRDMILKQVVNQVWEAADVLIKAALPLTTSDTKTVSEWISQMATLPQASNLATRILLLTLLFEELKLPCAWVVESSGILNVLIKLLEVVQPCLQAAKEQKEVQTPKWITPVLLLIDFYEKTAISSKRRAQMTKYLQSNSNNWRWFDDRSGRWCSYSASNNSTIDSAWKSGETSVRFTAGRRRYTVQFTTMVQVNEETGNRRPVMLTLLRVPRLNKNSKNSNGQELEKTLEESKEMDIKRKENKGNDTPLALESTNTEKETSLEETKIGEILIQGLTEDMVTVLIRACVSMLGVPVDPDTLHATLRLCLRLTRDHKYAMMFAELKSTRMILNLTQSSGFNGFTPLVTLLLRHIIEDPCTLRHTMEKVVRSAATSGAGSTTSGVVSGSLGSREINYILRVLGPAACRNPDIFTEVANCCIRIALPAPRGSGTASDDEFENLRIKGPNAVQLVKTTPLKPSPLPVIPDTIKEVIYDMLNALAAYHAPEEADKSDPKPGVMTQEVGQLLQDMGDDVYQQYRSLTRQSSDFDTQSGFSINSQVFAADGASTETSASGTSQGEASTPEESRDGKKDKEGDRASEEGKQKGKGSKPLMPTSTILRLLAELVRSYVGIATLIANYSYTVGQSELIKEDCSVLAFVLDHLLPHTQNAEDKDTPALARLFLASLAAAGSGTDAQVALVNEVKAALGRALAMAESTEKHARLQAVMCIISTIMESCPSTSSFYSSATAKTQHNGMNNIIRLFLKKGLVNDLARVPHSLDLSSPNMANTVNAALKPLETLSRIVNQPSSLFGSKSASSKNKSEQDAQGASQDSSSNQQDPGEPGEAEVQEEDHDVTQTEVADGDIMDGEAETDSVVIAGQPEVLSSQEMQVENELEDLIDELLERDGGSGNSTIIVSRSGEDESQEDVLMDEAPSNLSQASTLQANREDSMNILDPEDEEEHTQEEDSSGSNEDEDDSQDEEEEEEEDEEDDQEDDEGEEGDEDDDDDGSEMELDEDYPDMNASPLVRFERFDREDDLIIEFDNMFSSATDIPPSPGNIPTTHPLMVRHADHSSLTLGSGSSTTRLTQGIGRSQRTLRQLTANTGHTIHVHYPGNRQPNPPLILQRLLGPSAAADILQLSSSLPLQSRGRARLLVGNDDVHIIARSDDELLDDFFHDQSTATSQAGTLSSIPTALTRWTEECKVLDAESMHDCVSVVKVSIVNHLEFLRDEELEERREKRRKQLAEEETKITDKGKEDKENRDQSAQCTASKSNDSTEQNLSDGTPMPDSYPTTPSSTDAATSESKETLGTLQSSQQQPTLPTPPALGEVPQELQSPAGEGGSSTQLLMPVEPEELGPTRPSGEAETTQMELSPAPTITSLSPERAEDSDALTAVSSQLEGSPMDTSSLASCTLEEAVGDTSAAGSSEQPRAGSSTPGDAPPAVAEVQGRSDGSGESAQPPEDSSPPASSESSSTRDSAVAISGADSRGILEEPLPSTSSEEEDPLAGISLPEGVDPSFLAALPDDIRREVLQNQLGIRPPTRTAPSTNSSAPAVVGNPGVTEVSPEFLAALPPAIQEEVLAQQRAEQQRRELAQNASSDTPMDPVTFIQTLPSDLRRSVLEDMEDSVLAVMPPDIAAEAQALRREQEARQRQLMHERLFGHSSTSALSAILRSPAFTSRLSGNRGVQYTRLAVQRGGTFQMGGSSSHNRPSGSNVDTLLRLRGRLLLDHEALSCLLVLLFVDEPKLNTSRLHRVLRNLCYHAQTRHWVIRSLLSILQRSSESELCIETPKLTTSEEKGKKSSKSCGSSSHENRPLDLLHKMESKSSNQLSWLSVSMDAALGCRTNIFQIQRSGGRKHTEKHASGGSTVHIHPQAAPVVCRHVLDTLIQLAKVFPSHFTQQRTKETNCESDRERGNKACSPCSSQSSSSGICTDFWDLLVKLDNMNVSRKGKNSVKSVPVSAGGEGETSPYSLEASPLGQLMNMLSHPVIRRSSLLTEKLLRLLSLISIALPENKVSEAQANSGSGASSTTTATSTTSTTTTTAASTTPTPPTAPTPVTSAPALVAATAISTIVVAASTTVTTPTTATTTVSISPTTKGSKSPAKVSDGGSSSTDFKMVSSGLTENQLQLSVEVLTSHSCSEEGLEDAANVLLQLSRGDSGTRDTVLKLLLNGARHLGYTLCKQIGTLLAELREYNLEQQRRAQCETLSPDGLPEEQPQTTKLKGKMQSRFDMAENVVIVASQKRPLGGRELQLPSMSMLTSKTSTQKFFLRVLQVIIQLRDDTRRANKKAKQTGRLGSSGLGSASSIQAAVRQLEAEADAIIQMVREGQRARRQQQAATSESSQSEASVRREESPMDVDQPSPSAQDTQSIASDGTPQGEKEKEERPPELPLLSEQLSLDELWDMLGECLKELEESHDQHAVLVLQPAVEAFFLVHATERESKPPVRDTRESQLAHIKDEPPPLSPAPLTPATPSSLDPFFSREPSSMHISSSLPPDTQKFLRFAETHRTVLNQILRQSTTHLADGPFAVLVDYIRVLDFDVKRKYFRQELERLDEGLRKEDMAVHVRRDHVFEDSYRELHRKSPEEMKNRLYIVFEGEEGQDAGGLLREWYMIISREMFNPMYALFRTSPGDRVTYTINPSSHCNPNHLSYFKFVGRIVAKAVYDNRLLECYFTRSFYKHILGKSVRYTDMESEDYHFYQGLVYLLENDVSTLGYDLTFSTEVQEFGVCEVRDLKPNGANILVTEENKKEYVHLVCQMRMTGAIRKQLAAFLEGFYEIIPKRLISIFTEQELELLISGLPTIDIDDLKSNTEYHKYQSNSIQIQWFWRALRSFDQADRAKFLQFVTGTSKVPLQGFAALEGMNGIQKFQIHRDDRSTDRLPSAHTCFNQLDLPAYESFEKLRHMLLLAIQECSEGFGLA
# Experimental: HUWE1^HECT multi-turnover ubiquitination reactions were performed for 30 minutes (unless stated otherwise) with 200 nM UBA1, 5 μM UBE2L3 or UBE2D3 (as specified), 1 μM HUWE1^HECT and 30 μM Ub in 25 mM HEPES (pH 7.5), 100 mM NaCl, 3 mM MgCl2, and 0.5 mM TCEP. HUWE1^FL multi-turnover ubiquitination reactions included 50 nM UBA1, 2.5 μM UBE2L3, 0.05 μM HUWE1^FL, 0.5 μM MCL1 (or 0.5 μM H2B or 1 μM FOXP3) and 20 μM Ub in 20 mM HEPES (pH 7.5), 100 mM NaCl, 3 mM MgCl2, and 0.5 mM TCEP. All multi-turnover reactions were started by the addition of 1 mM ATP, incubated at 30 °C, quenched with SDS-loading dye. If not stated otherwise, HUWE1^FLautoubiquitination reactions were incubated for 20 minutes. Substrate ubiquitination reactions with MCL1 or H2B were incubated for 10 and 20 min, respectively; those with FOXP3 for 30 min. Those reactions that were monitored by fluorescence contained a fluorescent Ub tracer (IRDye 800CW maleimide; LI-COR)[55] and were monitored using an Odyssey CLx scanner (LI-COR), followed by Coomassie staining. In the fluorescence images, only those marker bands are labeled (in kDa) that are visible by fluorescence; all marker bands are labeled in the Coomassie-stained images. Statistical analyses were performed with Prism 9 v.9.3.1 (GraphPad).
# other HECT domains = tested on: other HECT domains; set-up: method as in PMID 25253726; settings: in vitro; cited from earlier work
# [1] = target: T2, HUWE1-HECT-Ub vinylthioether-linked conjugate (Homo sapiens, UniProt Q7Z6Z7); assay: HDX-MS of HUWE1^HECT~Ub proxy with inhibitors; format: binding; settings: 10-fold molar excess of inhibitor
# T2 construct: The preparation of the vinylthioether-linked HUWE1^HECT-Ub complex was also previously described; made in house; host or cells: bacteria (components)
# T2 sequence (Q7Z6Z7 4038-4374 limits assumed, other chains not shown): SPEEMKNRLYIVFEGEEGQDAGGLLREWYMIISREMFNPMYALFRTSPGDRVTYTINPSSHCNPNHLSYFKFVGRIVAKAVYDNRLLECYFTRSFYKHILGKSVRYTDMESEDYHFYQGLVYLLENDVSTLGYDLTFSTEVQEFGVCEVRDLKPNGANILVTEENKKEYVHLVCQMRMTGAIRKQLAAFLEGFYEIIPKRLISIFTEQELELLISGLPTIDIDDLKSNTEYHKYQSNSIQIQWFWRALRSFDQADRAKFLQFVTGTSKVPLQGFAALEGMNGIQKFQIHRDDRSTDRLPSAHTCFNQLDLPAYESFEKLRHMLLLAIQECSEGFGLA
# Experimental: Two experiments were performed: 50 μM HUWE1^HECT (1) or HUWE1^HECT-Ub conjugate (2) were incubated with 500 μM of BI8626 or BI8622 for 1 h on ice prior HDX-MS. Individual HDX reactions were generated with a 2-arm autosampler (LEAP Technologies) by mixing 6.5 μL sample with 58.5 μL of HDX buffer (20 mM HEPES pH 8.0, 150 mM NaCl, 5 mM DTT) prepared with 99.9% D2O, incubation at 25 °C for various times, before quenching by mixing 55 μL with an equal volume of 400 mM KH2PO4/H3PO4 (pH 2.2) and 2 M guanidine-HCl (precooled at 1 °C). Non-deuterated samples were generated analogously by 10-fold dilution with H2O-based buffer. […] For each protein state and time-point, three individual HDX reactions were measured.
# Peptide identification and HDX analysis was performed with ProteinLynx Global SERVER v.3.0.1 (PLGS; Waters) and DynamX v.3.0 (Waters), as described previously. […] Only peptides with an intensity >10,000 counts, ≤ 30 residues, ≥ 2 products with ≥ 0.05 products/residue, ≤ 25 ppm mass error and retention time tolerance of 0.5 min were analysed. […] The maximal deuterium uptake of a given peptide was calculated by the number of residues minus one for the N-terminal residue and minus the number of prolines. […]
# HUWE1^HECT = tested on: HUWE1^HECT; set-up: method as in PMID 25253726; settings: in vitro; read-out: IC50 of HUWE1^HECT inhibition; cited from earlier work
# [2] = tested on: HUWE1 substrates, such as MCL1; set-up: method as in PMID 25253726; settings: MCL1 upon DNA damage induction; cited from earlier work
# colorectal cancer cells = tested on: colorectal cancer cells; set-up: method as in PMID 25253726; settings: cited from earlier work
Compound,"Inhibition of HUWE1^FL protein ubiquitination activity (E3 autoubiquitination, free Ub chain formation) (HUWE1^FL)",IC50 (other HECT domains) [µM],Binding to HUWE1^HECT~Ub proxy by HDX-MS [1],IC50 (HUWE1^HECT) [µM],Stabilization of HUWE1 substrates [2],Cytotoxic effects (colorectal cancer cells)
Cc1c(C(=O)Nc2ccc(CN)cc2)ncnc1N1CCC(C#N)(c2ccccc2)CC1 [BI8622],inhibit the protein ubiquitination activity of the ligase in a dose-dependent manner,> 50,did not provide evidence of binding,3.1,"stabilize individual HUWE1 substrates under certain conditions, such as MCL1 upon DNA damage induction",selective cytotoxic effects
NCc1cccc(CNc2ncnc3c(N4CCN(Cc5ccccc5)CC4)ncnc23)c1 [BI8626],inhibit the protein ubiquitination activity of the ligase in a dose-dependent manner,> 50,did not provide evidence of binding,0.9,"stabilize individual HUWE1 substrates under certain conditions, such as MCL1 upon DNA damage induction",selective cytotoxic effects
